The test system of test [1] is HepG2 (human hepatocellular carcinoma). The test is described as follows: MTT in vitro cytotoxicity, HepG2. The following applies: 72 hr incubation. The class given is cell-based. The protocol: (§1) Materials and methods: MTT (3-[4,5-dimethylthiazol-2-yl]-diphenyl tetrazolium bromide) method was employed to determine the antiproliferative activity of all the compounds of the Examples and Contrasting Examples in vitro against selected cell lines, including HCT116 (human colon cancer cell), PC-3 (human prostate cancer), HepG2 (human hepatocellular carcinoma), SK-OV-3 (human ovarian adenocarcinoma), MCF-7 (human breast cancer), U87MG (human glioblastoma cell) cell lines.
(§2) Procedure: Human tumor cells of HCT116, PC-3, HepG2, SK-OV-3, MCF-7, and U87MG were in vitro cultured, and collected until the cells grow to the logarithmic phase. The cells were centrifuged for 5 minutes at 1000 rpm, and supernatant was discarded. Subsequently appropriate culture medium was added to suspend the precipitation, and the concentration of cells was adjusted to 3.5˜5.5×10^4/mL. the suspensions of cells were seeded in 96-well microplate at 100 μL per well, and incubated in incubator (37° C., 5% CO2) for 24 hr. The compound to test was added. For the control group, equivalent concentration of DMSO (final concentration 0.5%) was added. For each group, three copy wells were set. After incubated for 72 hr, 20 μL 5 mg/mL of MTT was added into each well, and placed at 37° C. for 3 hr. 150 μL of DMSO was added into each wells, and vibrated the shaker at 37° C. for 5 mins, then measured the absorbance (OD) value at 492 nm/620 nm. The IC50 values were calculated using Prism 5.0 software.

The subject of test [2] is SK-OV-3 (human ovarian adenocarcinoma). The test is described as follows: MTT in vitro cytotoxicity, SK-OV-3. The class given is cell-based. The conditions noted are these: 72 hr incubation. The procedure: as §1, §2
The subject of test [3] is HCT116 (human colon cancer cell). The test is described as follows: MTT in vitro cytotoxicity, HCT116. The class given is cell-based. The following applies: HCT-116, 72 hr incubation. The protocol: as §1, §2
Test [4] has as its system U87MG (human glioblastoma cell). The test is described as follows: MTT in vitro cytotoxicity, U87MG. The class given is cell-based. The conditions noted are these: U-87 MG, 72 hr incubation. The protocol: as §1, §2
The subject of test [5] is PC-3 (human prostate cancer). The test is described as follows: MTT in vitro cytotoxicity, PC-3. The following applies: 72 hr incubation, read-out: IC50 PC3. The class given is cell-based. The procedure:
as §1, §2

Another test relates to tumor cells (U87MG). Nature of the test: Assay for inhibiting cancer cell clone formation (soft agar). The class given is cell-based, human. The following applies: concentration range from 0.020 to 0.090 μM, 10-14 days. The protocol: Materials and methods: The tested tumor cells (U87MG) in the logarithmic phase were digested with 0.25% trypsin then percussed gently to the single cell state, and counted the live cells. The cells density was adjusted to 1×10^6[…] with DMEM containing 20% fetal bovine serum, and then diluted gradiently according to the experiment requirement.
Two concentrations (1.2% and 0.7%) of low melting point agarose fluid were prepared with distilled water respectively. A mixture of 1.2% agarose fluid and 2×DMEM medium (contains 2× antibiotics and 20% calf serum) was prepared in 1:1 ratio, then transferred (3 mL) into 6 cm diameter flat dishes, cooled to solidification to furnish the bottom agar which was stored in a CO2 incubator. The cell suspension (0.2 mL) was added to a mixture of 0.7% agarose and 2×DMEM medium which was prepared in 1:1 ratio in sterile tubes, and thoroughly mixed before injection to the precoated dishes to form the double layer agar. After the upper agar being solidified, the dishes were incubated in 37° C. and 5% CO2 for 10-14 days, each experiment was performed in 3-6 times.
The number of clones was counted under an inverted microscope. The clone formation rate was calculated.

Usually IC50 stands for the concentration needed to halve the response being measured.

For the molecule `CN(C)CCN1C(=O)c2c3ccccc3nc3cccc1c23` [Compound 1a, 2-(2-(dimethylamino)ethyl)pyrrolo[2,3,4-kl]acridin-1-(2H)-one], the IC50 in test [1] is 6.35 µM; in test [2], 14.8 µM; in test [3] it was 7.41 µM; in test [4], 0.582 µM; in test [5], 14.5 µM.

In the case of `O=C1c2c3ccccc3nc3cccc(c23)N1CCCN1CCOCC1` [Compound 1b, 2-(3-morpholinopropyl)pyrrolo[2,3,4-kl]acridin-1-(2H)-one], the IC50 worked out at 2.78 µM in test [1]; 8.43 µM in test [2]; 1.87 µM in test [3]; 1.78 µM in test [4]; 3.01 µM in test [5].

As for `O=C1c2c3ccccc3nc3cccc(c23)N1CCN1CCCCC1` [Compound 1f, 2-(2-(piperidin-1-yl)ethyl)pyrrolo[2,3,4-kl]acridin-1-(2H)-one], the IC50 in test [1] is 2.27 µM; in test [2], 3.65 µM; in test [3] it was 1.13 µM; in test [4], 3.93 µM; in test [5], 3.19 µM.

Take `O=C1c2c3ccccc3nc3cccc(c23)N1CCN1CCCC1` [Compound 1g, 2-(2-(pyrrolidin-1-yl)ethyl)pyrrolo[2,3,4-kl]acridin-1-(2H)-one]: the IC50 in test [1] was determined as 2.16 µM; in test [2], 6.52 µM; in test [3], 0.946 µM; in test [5], 3.99 µM.

As for `Cc1ccc2nc3cccc4c3c(c2c1)C(=O)N4CCN(C)C` [Compound 2a, 2-(2-(dimethylamino)ethyl)-9-methylpyrrolo[2,3,4-kl]acridin-1-(2H)-one], the IC50 is 2.83 µM in test [1], 1.05 µM in test [3], 2.05 µM in test [4] and 3.52 µM in test [5].

On to `CN(C)CCN1C(=O)c2c3cc(Cl)ccc3nc3cccc1c23` [Compound 2b, 9-chloro-2-(2-(dimethylamino)ethyl)pyrrolo[2,3,4-kl]acridin-1-(2H)-one], for which the IC50 stood at 1.07 µM in test [1], 0.859 µM in test [3], 1.45 µM in test [4] and 1.22 µM in test [5]. Also, in the test with tumor cells (U87MG), the “inhibition of glioma cell clone formation” value (shortened to “inhibition”) is listed as “significantly inhibited”.

Consider `CN(C)CCN1C(=O)c2c3cccc(F)c3nc3cccc1c23` [Compound 2d, 2-(2-(dimethylamino)ethyl)-7-fluoropyrrolo[2,3,4-kl]acridin-1-(2H)-one], for which the IC50 was 1.41 µM in test [1], 0.951 µM in test [3], 1.7 µM in test [4] and 1.85 µM in test [5]. Moreover, the “inhibition” value in the test with tumor cells (U87MG) is “significantly inhibited”.

Regarding `CN(C)CCN1C(=O)c2c3ccccc3nc3c([N+](=O)[O-])ccc1c23` [Compound 2e], the IC50 in test [1] came to 1.86 µM; in test [3], 1.34 µM; in test [4], 1.74 µM; in test [5], 0.998 µM.

Regarding `Cc1ccc2nc3cccc4c3c(c2c1)C(=O)N4CCCN(C)C` [Compound 3a, 2-(3-(dimethylamino)propyl)-9-methylpyrrolo[2,3,4-kl]acridin-1-(2H)-one], the IC50 in test [1] amounted to 2.85 µM; in test [3], 1.38 µM; in test [4], 2.19 µM; in test [5], 8.21 µM.

Consider `CN(C)CCCN1C(=O)c2c3cc(Cl)ccc3nc3cccc1c23` [Compound 3b, 9-chloro-2-(3-(dimethylamino)propyl)pyrrolo[2,3,4-kl]acridin-1-(2H)-one], for which the IC50 in test [1] was 1.47 µM; in test [3], 1.32 µM; in test [4] it was 1.58 µM; in test [5], 2.33 µM.

Turning to `CN(C)CCCN1C(=O)c2c3cc(Cl)ccc3nc3cccc1c23.O=C(O)/C=C/C(=O)O` [Compound 3b′, 9-chloro-2-(3-(dimethylamino)propyl)pyrrolo[2,3,4-kl]acridin-1-(2H)-one fumarate], the “inhibition” value in the test with tumor cells (U87MG) was “significantly inhibited”.

For `COc1ccc2nc3cccc4c3c(c2c1)C(=O)N4CCCN(C)C` [Compound 3c, 2-(3-(dimethylamino)propyl)-9-methoxypyrrolo[2,3,4-kl]acridin-1-(2H)-one], the IC50 came out at 1.83 µM in test [1], 1.11 µM in test [3], 1.85 µM in test [4] and 3.47 µM in test [5].

With `CN(C)CCCN1C(=O)c2c3cccc(F)c3nc3cccc1c23` [Compound 3d, 2-(3-(dimethylamino)propyl)-7-fluoropyrrolo[2,3,4-kl]acridin-1-(2H)-one], the IC50 in test [1] was found to be 2.1 µM; in test [3], 1.49 µM; in test [4], 2.36 µM; in test [5], 4.99 µM.

As to `Cc1ccc2nc3cccc4c3c(c2c1)C(=O)N4CCN1CCCCC1` [Compound 4a, 9-methyl-2-(2-(piperidin-1-yl)ethyl)pyrrolo[2,3,4-kl]acridin-1-(2H)-one], the IC50 in test [1] came to 2.57 µM; in test [3], 1.42 µM; in test [4] it was 1.33 µM; in test [5], 4.13 µM.

Take `O=C1c2c3cc(Cl)ccc3nc3cccc(c23)N1CCN1CCCCC1` [Compound 4b, 9-chloro-2-(2-(piperidin-1-yl)ethyl)pyrrolo[2,3,4-kl]acridin-1-(2H)-one]: the IC50 amounted to 2.25 µM in test [1], 1.38 µM in test [3], 1.89 µM in test [4] and 2.88 µM in test [5].

For `COc1ccc2nc3cccc4c3c(c2c1)C(=O)N4CCN1CCCCC1` [Compound 4c, 9-methoxy-2-(2-(piperidin-1-yl)ethyl)pyrrolo[2,3,4-kl]acridin-1-(2H)-one], the IC50 in test [1] was determined as 1.5 µM; in test [3] it was 0.284 µM; in test [4] it was 0.497 µM; in test [5], 1.4 µM.

Consider `O=C1c2c3cccc(F)c3nc3cccc(c23)N1CCN1CCCCC1` [Compound 4d, 7-fluoro-2-(2-(piperidin-1-yl)ethyl)pyrrolo[2,3,4-kl]acridin-1-(2H)-one], for which the IC50 stood at 3.58 µM in test [1], 1.21 µM in test [3], 1.78 µM in test [4] and 4.7 µM in test [5].

On to `Cc1ccc2nc3c(C)ccc4c3c(c2c1)C(=O)N4CCN(C)C` [Compound 5a, 2-(2-(dimethylamino)ethyl)-5,9-dimethylpyrrolo[2,3,4-kl]-acridin-1-(2H)-one], for which the IC50 in test [1] was determined as 1.94 µM; in test [3], 1.06 µM; in test [4], 1.48 µM; in test [5] it was 2.9 µM. Besides, the “inhibition” value with tumor cells (U87MG) is “significantly inhibited”.

`Cc1ccc2c3c(c4cc(Cl)ccc4nc13)C(=O)N2CCN(C)C` [Compound 5b, 9-chloro-2-(2-(dimethylamino)ethyl)-5-methylpyrrolo[2,3,4-kl]-acridin-1-(2H)-one]: the IC50 in test [1] was found to be 1.17 µM; in test [3] it was 0.93 µM; in test [4] it was 1.27 µM; in test [5], 2.24 µM. The “inhibition” value with tumor cells (U87MG) is “significantly inhibited”.

On to `COc1ccc2nc3c(C)ccc4c3c(c2c1)C(=O)N4CCN(C)C` [Compound 5c, 2-(2-(dimethylamino)ethyl)-9-methoxy-5-methylpyrrolo[2,3,4-kl]-acridin-1-(2H)-one], for which the IC50 in test [1] was determined as 0.232 µM; in test [3], 0.165 µM; in test [4] it was 0.269 µM; in test [5], 0.689 µM.

For the molecule `Cc1ccc2c3c(c4cccc(F)c4nc13)C(=O)N2CCN(C)C` [Compound 5d, 2-(2-(dimethylamino)ethyl)-7-fluoro-5-methylpyrrolo[2,3,4-kl]-acridin-1-(2H)-one], the IC50 was 1.72 µM in test [1], 1 µM in test [3], 1.42 µM in test [4] and 2.51 µM in test [5]. Moreover, the “inhibition” value with tumor cells (U87MG) is on record as “significantly inhibited”.

`Cc1ccc2c3c(c4ccccc4nc13)C(=O)N2CCN(C)C` [Compound 5e, 2-(2-(dimethylamino)ethyl)-5-methylpyrrolo[2,3,4-kl]-acridin-1-(2H)-one]: the IC50 turned out to be 1.28 µM in test [1], 0.767 µM in test [3], 0.959 µM in test [4] and 1.66 µM in test [5]. Moreover, the “inhibition” value in the test on tumor cells (U87MG) was “significantly inhibited”.

Source of the values: patent publication US9643968B2, “Fused acridine derivative and pharmaceutical composition, preparation method and use thereof” (Peking University, priority 2014, dated 2017).
